The nature of this data set: Human HepG2 cell viability assay in 384 well format. Format: toxicity, cell-based. Also on record: dose 125 nL, time 70.5 hour; cytotoxicity at 70.5 h: concentration not given beside the values. The note with it: HepG2 cells, read-out: Inhibition.
Take `Cc1cn2c(n1)CCC(NC(=O)c1cc(C3CC3)[nH]n1)C2` (stereo unspecified): the cytotoxicity at 70.5 h is -4.74%.

For `CCc1ccc(C(=O)NCc2cccc(S(=O)(=O)NC)c2)o1`, the cytotoxicity at 70.5 h was -0.952%. Take `CCN(Cc1c(F)cccc1F)C(=O)c1ccncc1O`: the cytotoxicity at 70.5 h was -7.76%. In the case of `COc1ccc(CNC(=O)c2cc3c(nc2O)CCC(C)C3)cc1` (stereo unspecified), the cytotoxicity at 70.5 h was -8.97%. For the compound `C=C(C)CNc1ccc(C(=O)N(CC)Cc2nccn2C)cn1`, the cytotoxicity at 70.5 h stood at 25.1%. In the case of `O=C(c1ccc2c(c1)OCCCO2)N1CCCC(n2ccnc2)C1` (stereo unspecified), the cytotoxicity at 70.5 h was -8.38%. Take `CCn1ccnc1CN1CCCN(C(=O)c2cc[nH]n2)CC1`: the cytotoxicity at 70.5 h came to 0.0306%. Under `c1cc(CNCc2ccnc(N3CCOCC3)c2)c2c(c1)OCO2` stands -8.43%. Take `COc1ncnc2c1CCN(Cc1nccs1)CC2`: the cytotoxicity at 70.5 h is -8.56%. Under `Cc1csc(-c2cccc(NC(=O)N3CCOCC3)c2)n1` stands -3.32%. Turning to `COc1cc(C(=O)N(Cc2cccs2)C2CC2)cc2c1OCCO2`, the cytotoxicity at 70.5 h worked out at 16%. To `Cc1nc(-c2ccccc2)sc1CSCCS(C)(=O)=O` belongs 1.82%; to `COCCNC(=O)Nc1cc2c(cc1SC)OCCO2`, -4.52%. As to `CC(=O)N[C@@H]1CN(Cc2ccccc2C#N)C[C@H]1c1ccc(C)cc1`, the cytotoxicity at 70.5 h was -21.6%. Turning to `Cc1ccnc(N2CCC(OCCN3CCCCC3)C2)n1` (stereo unspecified), the cytotoxicity at 70.5 h is -8.76%.

With `O=C(NCCc1ccccc1F)NCC(O)c1cccc(F)c1` (stereo unspecified), the cytotoxicity at 70.5 h is -7.16%. In the case of `CCc1ccccc1OC1CN(C(=O)CN(C)Cc2ccncc2)C1`, the cytotoxicity at 70.5 h was -8.04%. To `O=C(Cc1ccc2c(c1)CCC2)N1CCCC1Cn1cccn1` (stereo unspecified) belongs 26.4%; to `O=C(CCCOCc1ccccc1)N1CCCC(n2cncn2)C1` (stereo unspecified), -1.64%; to `CCCS(=O)(=O)N1CCC2(CC1)CN(c1ccccn1)CCO2`, 23.8%. As to `COCC1CN(C(=O)CC2=CCCCC2)Cc2nnn(CC3CC3)c21` (stereo unspecified), the cytotoxicity at 70.5 h was -12%. With `CN(Cc1cnccn1)C(=O)[C@@]12CNC[C@@H]1CN(Cc1ccccc1)C2`, the cytotoxicity at 70.5 h was -11.2%. For the compound `CCCc1noc(C2CCN(C(=O)C3CCCO3)CC2)n1` (stereo unspecified), the cytotoxicity at 70.5 h was -13.7%. Under `O=C(Cn1cnc(NC(=O)c2ccccn2)n1)NCc1ccccc1` stands -12.9%; under `CCCc1cc(CN(C)C2CC(C)(C)NC(C)(C)C2)n[nH]1`, -4.42%.

On to `CN(C)CC1CN(Cc2cccc(C(=O)N(C)C)c2)CCO1` (stereo unspecified), for which the cytotoxicity at 70.5 h was -1.2%.

With `Cn1c(CN2CCCC(Cn3cncn3)C2)nc2ccccc21` (stereo unspecified), the cytotoxicity at 70.5 h came to 28.9%. Turning to `COc1ccc(S(=O)(=O)NCCC(O)c2cc(C)oc2C)c(C)c1` (stereo unspecified), the cytotoxicity at 70.5 h is -5.42%.

For `O=C(c1cocn1)N1C[C@@H]2COC[C@]2(COc2cccnc2)C1`, the cytotoxicity at 70.5 h is -4.92%. Take `COCCn1/c(=N\C(=O)CN(C)S(C)(=O)=O)sc2cc(Cl)ccc21`: the cytotoxicity at 70.5 h worked out at 17%. As for `Cc1ccc(CN2CCc3c(CN4CCCC4)n[nH]c3C2)s1`, the cytotoxicity at 70.5 h is -4.44%. As for `O=C(C1COc2ccccc2C1)N(CCO)Cc1ccccc1` (stereo unspecified), the cytotoxicity at 70.5 h was -1.94%. On to `CC(=O)N1CCCN(C(C(=O)O)c2ccccc2OC(F)(F)F)CC1` (stereo unspecified), for which the cytotoxicity at 70.5 h was -7.53%. For the compound `Cc1cccc(CN2C(=O)CC[C@@H]3[C@H]2CCN3Cc2ccc(F)cc2)n1`, the cytotoxicity at 70.5 h is -4.94%.

On to `CS(=O)(=O)NCC1CCCCN1Cc1ccccc1C#N` (stereo unspecified), for which the cytotoxicity at 70.5 h is -10.5%. In the case of `CCCn1cc(NC(=O)c2cccnc2O)ccc1=O`, the cytotoxicity at 70.5 h was -1.07%. With `Cc1ccc(N2CC[C@H]3CO[C@H](CN(C)Cc4ccco4)[C@H]3C2)nn1`, the cytotoxicity at 70.5 h was -0.777%. As for `CN(C)Cc1cc(C2CCN(C(=O)C3CC34CCC4)CC2)nn1C` (stereo unspecified), the cytotoxicity at 70.5 h is -0.0295%. Take `CCc1nc2n(n1)CC(NCC(=O)Nc1cc(C(C)(C)C)no1)CC2` (stereo unspecified): the cytotoxicity at 70.5 h is -0.0913%. Turning to `CCc1nc(CN2CCCC(NCc3ncc(C(C)(C)C)o3)C2)no1` (stereo unspecified), the cytotoxicity at 70.5 h was found to be 8.8%. `CN(C)S(=O)(=O)N1CCC(Oc2ccc(C#N)cn2)CC1`: the cytotoxicity at 70.5 h is -1.45%. In the case of `CC(=O)N1CCCn2nc(CNS(=O)(=O)c3cc(C)cs3)cc2C1`, the cytotoxicity at 70.5 h is -4.2%. For `CCn1nc(C)c(CN(Cc2ccccn2)Cc2ccccc2Cl)c1C`, the cytotoxicity at 70.5 h turned out to be 10.9%. Regarding `c1ccc(-c2noc3c2CN(CC2CC2)CC3)cc1`, the cytotoxicity at 70.5 h was -3.25%. For the compound `CS(=O)(=O)N1CC[C@H](c2nc3ccc(C(F)(F)F)cc3[nH]2)C1`, the cytotoxicity at 70.5 h was -4.96%. As to `COc1cc(C(=O)N(Cc2cnn(C)c2)C(C)C)ccc1C`, the cytotoxicity at 70.5 h is -1.26%. Turning to `CCc1nccn1CCC(=O)N1CC(=O)N(c2ccccc2C)CC1C` (stereo unspecified), the cytotoxicity at 70.5 h is -7.9%. For the compound `Cc1nc(-c2ccccc2)sc1CSC(C)C(N)=O` (stereo unspecified), the cytotoxicity at 70.5 h was -1.25%. `CCCc1ccc(S(=O)(=O)NC(=O)CCC2CCCO2)cc1` (stereo unspecified): the cytotoxicity at 70.5 h was 3.11%. Regarding `Cc1cccc(Cn2nc(C3CCNCC3)n(-c3ccccc3)c2=O)c1`, the cytotoxicity at 70.5 h is -5.91%. As for `CC(C)c1nc(N2CC(N3CCCCC3C)C2)c2cnn(C)c2n1` (stereo unspecified), the cytotoxicity at 70.5 h was 12%. Under `CC(=O)N1CCN(C(=O)NCc2ccc(Cl)s2)CC1` stands 20.2%. With `c1csc(N2CCCN(c3nccn4cnnc34)CC2)n1`, the cytotoxicity at 70.5 h was 3.4%. Under `Cc1cc(CN2CCOC(Cn3nc(C)cc3C)C2)on1` (stereo unspecified) stands -5.48%; under `COCCn1ccc2c(NC(=O)C(C)C)cccc21`, -1.52%; under `CCCNC(=O)N1CCC(c2nnc(Cn3cccn3)n2C2CC2)CC1`, -10.5%. As to `COCCC(=O)N1CCC(c2cc3ncc(C)nc3[nH]2)CC1`, the cytotoxicity at 70.5 h was -14.7%. Under `COc1cc(C(=O)N2CCC3(CC2)Nc2ccccc2NC3=O)ccn1` stands 19%; under `CCn1cnnc1C1CCN(C(=O)c2ccc(Cl)s2)CC1`, -15%; under `O=C1Nc2ccccc2/C1=C1\CCCN1`, -1.25%. To `CC1COCCN1C(=O)c1ccc(=O)n(CCOc2ccccc2)n1` (stereo unspecified) belongs -5.11%; to `O=C(Cc1ccc(-n2cnnn2)cc1)Nc1nncs1`, -3.13%.

Take `CC(C)c1noc(CN(Cc2cccs2)C2CC2)n1`: the cytotoxicity at 70.5 h came to 6.94%. In the case of `CC(=O)N1CCC2(CC1)CC[C@@]1(C(=O)N(C)C)CN(S(C)(=O)=O)C[C@@H]21`, the cytotoxicity at 70.5 h was 27.7%. With `CN(C)CC(=O)N1CC2(CCN(Cc3ccccc3)C2)C1`, the cytotoxicity at 70.5 h was determined as 35.2%. In the case of `NC(=O)NC(CC(=O)NCCc1ccc(F)cc1)c1ccccc1` (stereo unspecified), the cytotoxicity at 70.5 h is 1.48%. To `CC(C)c1nccn1CCCNC(=O)c1ccc(-c2cccnc2)nc1` belongs -9.12%; to `COc1ccc(CNC(=O)Nc2ccc(=O)n(C)c2)cc1`, -3.5%.

As for `COc1ccc(-c2nc(CN3CCCS3(=O)=O)co2)cc1`, the cytotoxicity at 70.5 h is 14.5%.

Regarding `CCN1CCCN(C(=O)c2ccc(NC(=O)CC(C)C)c(C)c2)CC1`, the cytotoxicity at 70.5 h is -12.9%.

With `COc1ccc(CCN(C)C(=O)c2cc(C(C)=O)c[nH]2)cc1OC`, the cytotoxicity at 70.5 h was -11.9%.

Values taken from ChEMBL document CHEMBL3507680, “University of Dundee, Gates Library screen for HepG2 cell viability”.
